Results from paper PMC7943464, “Dim Red Light During Scotophase Enhances Mating of a Moth Through Increased Male Antennal Sensitivity Against the Female Sex Pheromone” (Frontiers in Genetics, 2021).

target: T1, CpunOBP2 (Conogethes punctiferalis, UniProt A0A0C4K8H3); assay: competitive 1-NPN fluorescence displacement; type: binding
T1 construct: gene OBP2; pET-32a(+) in E. coli BL21(DE3); Ni-IDA purified; tags removed by enterokinase
T1 sequence (A0A0C4K8H3 23-151): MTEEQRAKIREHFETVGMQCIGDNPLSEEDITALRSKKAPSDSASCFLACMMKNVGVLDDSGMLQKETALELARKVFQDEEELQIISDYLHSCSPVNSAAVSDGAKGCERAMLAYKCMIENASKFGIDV
From the text: competitive 1-NPN fluorescence displacement on CpunOBP2

IC50 [µM] | Ki [µM] | Compound
9.55 ± 4.58 | 8.48 ± 4.06 | CCCCC/C=C/CCCCCCCCC=O [E10-16∶Ald, (E)-10-hexadecenal]
4.14 ± 2.63 | 3.68 ± 2.33 | CC/C=C\C/C=C\C/C=C\CCCCCCCCCCCCC [Z3, Z6, Z9-23∶HC, (Z3, Z6, Z9)-tricosatriene]
7.73 ± 2.82 | 6.86 ± 2.5 | CCCCC/C=C\CCCCCCCCC=O [Z10-16∶Ald, (Z)-10-hexadecenal]
